Test results: BigSolDB 2.1

CC(C)(OOC(C)(C)c1ccccc1)c1ccccc1
solubility (mole fraction)
Conditions	274.15 K	278.15 K	282.15 K	286.15 K	290.15 K	294.15 K	298.15 K	302.15 K
in DMF	0.152	0.196	0.246	0.305	0.365	0.44	0.518	0.619
in ethanol	0.0152	0.0188	0.0236	0.0303	0.0418	0.0573	0.0851	0.142
in isopropanol	0.0132	0.0168	0.0219	0.0291	0.0398	0.0567	0.0859	0.143
in methanol	0.00668	0.00933	0.0118	0.0154	0.02	0.0283	0.0395	0.0602
in n-butanol	0.0241	0.0317	0.0407	0.0541	0.07	0.0974	0.144	0.237
in n-propanol	0.019	0.0253	0.0317	0.0425	0.0568	0.0783	0.118	0.194
in sec-butanol	0.0161	0.0208	0.0275	0.036	0.0486	0.0724	0.107	0.183
